Experimental data: the NIST ThermoML archive (doi:10.1021/je800571y)

Experiment: xn = mol fraction of the nth substance listed
Conditions: 101 kPa, Liquid

CCC(C)=O [butanone] + CC(C)O
Conditions | mass density, 293.15 K [kg/m3] | mass density, 298.15 K [kg/m3] | mass density, 303.15 K [kg/m3] | mass density, 308.15 K [kg/m3] | mass density, 313.15 K [kg/m3] | viscosity, 293.15 K [mPa·s] | viscosity, 298.15 K [mPa·s] | viscosity, 303.15 K [mPa·s] | viscosity, 308.15 K [mPa·s] | viscosity, 313.15 K [mPa·s]
x1 = 0.0562 | 786.4 | 782.34 | 778.9 | 773.52 | 769.21 | – | – | – | – | –
x1 = 0.0595 | – | – | – | – | – | 1.816 | 1.596 | 1.413 | 1.272 | 1.165
x1 = 0.1136 | 787.47 | 783.31 | 779.85 | 774.58 | 770.17 | – | – | – | – | –
x1 = 0.1282 | – | – | – | – | – | 1.504 | 1.362 | 1.207 | 1.095 | 1.003
x1 = 0.1724 | 788.54 | 784.36 | 780.81 | 775.58 | 771.13 | 1.294 | 1.185 | 1.046 | 0.9637 | 0.8693
x1 = 0.2326 | 789.67 | 785.46 | 781.82 | 776.64 | 772.12 | 1.103 | 0.9992 | 0.9083 | 0.8366 | 0.774
x1 = 0.2941 | 790.83 | 786.59 | 782.85 | 777.7 | 773.13 | 0.9668 | 0.8812 | 0.8021 | 0.7488 | 0.6929
x1 = 0.3571 | 792.05 | 787.74 | 783.91 | 778.8 | 774.16 | – | – | – | – | –
x1 = 0.3572 | – | – | – | – | – | 0.852 | 0.7675 | 0.7154 | 0.6663 | 0.6169
x1 = 0.4217 | 793.29 | 788.95 | 785.01 | 779.92 | 775.21 | 0.7693 | 0.6949 | 0.6406 | 0.5987 | 0.5567
x1 = 0.4878 | 794.6 | 790.18 | 786.14 | 781.07 | 776.27 | 0.7113 | 0.6289 | 0.5816 | 0.5428 | 0.4753
x1 = 0.5555 | 795.96 | 791.44 | 787.29 | 782.24 | 777.37 | – | – | – | – | –
x1 = 0.5556 | – | – | – | – | – | 0.6609 | 0.5801 | 0.5303 | 0.4834 | 0.4406
x1 = 0.625 | 797.35 | 792.74 | 788.49 | 783.44 | 778.48 | 0.6072 | 0.5071 | 0.4848 | 0.4314 | 0.3846
x1 = 0.6962 | 798.79 | 794.08 | 789.7 | 784.66 | 779.61 | 0.5511 | 0.4516 | 0.4355 | 0.3751 | 0.3302
x1 = 0.7692 | 800.26 | 795.45 | 790.95 | 785.91 | 780.76 | – | – | – | – | –
x1 = 0.7693 | – | – | – | – | – | 0.5144 | 0.3852 | 0.3866 | 0.3345 | 0.316
x1 = 0.8442 | 801.6 | 796.86 | 792.21 | 787.18 | 781.93 | 0.4675 | 0.353 | 0.3359 | 0.306 | 0.286
x1 = 0.9211 | 803.3 | 798.3 | 793.51 | 788.48 | 783.12 | 0.4293 | 0.3262 | 0.2972 | 0.2758 | 0.2706
x1 = 1 | 804.92 | 799.7 | 794.81 | 789.78 | 784.32 | – | 0.2828 | 0.2666 | 0.2601 | 0.2545
